pIC50: −log10 of the molar value.
Tested on: 922993-354-T-J3-PDC complex spheroids, viability, % test/control
Test: Anticancer human tumor 922993-354-T-J3-PDC patient-derived endometrial carcinoma cell line growth inhibition [CLK]
Details: for pIC50: curve of first compound; for viability, T/C: stronger effect = lower value
Outline: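 Patient-derived tumor cells grown as complex spheroids with HUVEC endothelial cells and mesenchymal stem cells, treated with drug combinations. Concentrations descend in half-log steps from near clinical Cmax, or from 10 microM if Cmax unknown.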

[1] = second compound 0.0316 µM, first compound 0.0316 µM
[2] = second compound 0.0316 µM, first compound 0.1 µM
[3] = second compound 0.0316 µM, first compound 0.316 µM
[4] = second compound 0.0316 µM, first compound 1 µM
[5] = second compound 0.1 µM, first compound 0.0316 µM
[6] = second compound 0.1 µM, first compound 0.1 µM
[7] = second compound 0.1 µM, first compound 0.316 µM
[8] = second compound 0.1 µM, first compound 1 µM
[9] = second compound 0.316 µM, first compound 0.0316 µM
[10] = second compound 0.316 µM, first compound 0.1 µM
[11] = second compound 0.316 µM, first compound 0.316 µM
[12] = second compound 0.316 µM, first compound 1 µM
[13] = second compound 1 µM, first compound 0.0316 µM
[14] = second compound 1 µM, first compound 0.1 µM
[15] = second compound 1 µM, first compound 0.316 µM
[16] = second compound 1 µM, first compound 1 µM
[17] = second compound 3.16 µM, first compound 0.0316 µM
[18] = second compound 3.16 µM, first compound 0.1 µM
[19] = second compound 3.16 µM, first compound 0.316 µM
[20] = second compound 3.16 µM, first compound 1 µM
[21] = second compound 10 µM, first compound 0.0316 µM
[22] = second compound 10 µM, first compound 0.1 µM
[23] = second compound 10 µM, first compound 0.316 µM
[24] = second compound 10 µM, first compound 1 µM
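Also: spheroids exposed to the agents for 7 days before readout.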

## CC(=O)O[C@H]1C(=O)[C@@]2(C)[C@H]([C@H](OC(=O)c3ccccc3)[C@]3(O)C[C@H](OC(=O)[C@H](O)[C@@H](NC(=O)c4ccccc4)c4ccccc4)C(C)=C1C3(C)C)[C@]1(OC(C)=O)CO[C@@H]1C[C@@H]2O + CNC(=O)c1ccc(Nc2nc(OC3CCCC3)c3c(-c4ccc5nc(C)oc5c4)c[nH]c3n2)c(OC)c1
Second compound 0.0316 µM
  pIC50: < 5.00
Second compound 0.1 µM
  pIC50: < 5.00
Second compound 0.316 µM
  pIC50: < 5.00
Second compound 1 µM
  pIC50: > 7.50
Second compound 3.16 µM
  pIC50: > 7.50
Second compound 10 µM
  pIC50: > 7.50
[1]
  viability, T/C: 113%
[2]
  viability, T/C: 104%
[3]
  viability, T/C: 99.3%
[4]
  viability, T/C: 99.2%
Second compound 0.0316 µM, first compound 3.16 µM
  viability, T/C: 69.3%
Second compound 0.0316 µM, first compound 10 µM
  viability, T/C: 51%
[5]
  viability, T/C: 101%
[6]
  viability, T/C: 92.1%
[7]
  viability, T/C: 104%
[8]
  viability, T/C: 77.1%
Second compound 0.1 µM, first compound 3.16 µM
  viability, T/C: 61.2%
Second compound 0.1 µM, first compound 10 µM
  viability, T/C: 51.8%
[9]
  viability, T/C: 60.2%
[10]
  viability, T/C: 59%
[11]
  viability, T/C: 66.8%
[12]
  viability, T/C: 73.2%
Second compound 0.316 µM, first compound 3.16 µM
  viability, T/C: 79.7%
Second compound 0.316 µM, first compound 10 µM
  viability, T/C: 68.1%
[13]
  viability, T/C: 42.6%
[14]
  viability, T/C: 46%
[15]
  viability, T/C: 44.7%
[16]
  viability, T/C: 45.9%
Second compound 1 µM, first compound 3.16 µM
  viability, T/C: 51.1%
Second compound 1 µM, first compound 10 µM
  viability, T/C: 47.1%
[17]
  viability, T/C: 34.6%
[18]
  viability, T/C: 41.4%
[19]
  viability, T/C: 35.8%
[20]
  viability, T/C: 44.3%
Second compound 3.16 µM, first compound 3.16 µM
  viability, T/C: 42.6%
Second compound 3.16 µM, first compound 10 µM
  viability, T/C: 39.9%
[21]
  viability, T/C: 35.4%
[22]
  viability, T/C: 39.2%
[23]
  viability, T/C: 40.2%
[24]
  viability, T/C: 37.4%
Second compound 10 µM, first compound 3.16 µM
  viability, T/C: 44.9%
Second compound 10 µM, first compound 10 µM
  viability, T/C: 36.1%

## CCc1c2c(nc3ccc(O)cc13)-c1cc3c(c(=O)n1C2)COC(=O)[C@]3(O)CC + CNC(=O)c1ccc(Nc2nc(OC3CCCC3)c3c(-c4ccc5nc(C)oc5c4)c[nH]c3n2)c(OC)c1
Second compound 0.0316 µM
  pIC50: 7.71
Second compound 0.1 µM
  pIC50: 7.64
Second compound 0.316 µM
  pIC50: 7.78
Second compound 1 µM
  pIC50: > 8.50
Second compound 3.16 µM
  pIC50: > 8.50
Second compound 10 µM
  pIC50: > 8.50
Second compound 0.0316 µM, first compound 0.00316 µM
  viability, T/C: 101%
Second compound 0.0316 µM, first compound 0.01 µM
  viability, T/C: 85.3%
[1]
  viability, T/C: 24.8%
[2]
  viability, T/C: 15.1%
[3]
  viability, T/C: 22.3%
[4]
  viability, T/C: 25.9%
Second compound 0.1 µM, first compound 0.00316 µM
  viability, T/C: 99.2%
Second compound 0.1 µM, first compound 0.01 µM
  viability, T/C: 79.2%
[5]
  viability, T/C: 40.6%
[6]
  viability, T/C: 15.1%
[7]
  viability, T/C: 20.7%
[8]
  viability, T/C: 29.9%
Second compound 0.316 µM, first compound 0.00316 µM
  viability, T/C: 64.2%
Second compound 0.316 µM, first compound 0.01 µM
  viability, T/C: 63.4%
[9]
  viability, T/C: 32.6%
[10]
  viability, T/C: 16%
[11]
  viability, T/C: 21.4%
[12]
  viability, T/C: 31.4%
Second compound 1 µM, first compound 0.00316 µM
  viability, T/C: 32.1%
Second compound 1 µM, first compound 0.01 µM
  viability, T/C: 39.8%
[13]
  viability, T/C: 13.2%
[14]
  viability, T/C: 13.6%
[15]
  viability, T/C: 20.3%
[16]
  viability, T/C: 18.5%
Second compound 3.16 µM, first compound 0.00316 µM
  viability, T/C: 34.4%
Second compound 3.16 µM, first compound 0.01 µM
  viability, T/C: 28.1%
[17]
  viability, T/C: 14.6%
[18]
  viability, T/C: 13.8%
[19]
  viability, T/C: 17.4%
[20]
  viability, T/C: 17.7%
Second compound 10 µM, first compound 0.00316 µM
  viability, T/C: 30%
Second compound 10 µM, first compound 0.01 µM
  viability, T/C: 21.8%
[21]
  viability, T/C: 12.6%
[22]
  viability, T/C: 14.6%
[23]
  viability, T/C: 16.5%
[24]
  viability, T/C: 17.6%

Reference: PubChem BioAssay AID2060606 (Molecular Pharmacology Branch, DTP, NCI, 2025)
